This is an account of results in PubChem BioAssay (NCI).

Common to all, as to assay: NCI-60 cell line screen, 48 h
The test system of test [1] is A498 renal.
Test [2] has as its system ACHN renal.
Test [3] relates to CCRF-CEM leukemia.
Test [4] relates to HT29 colon.
The subject of test [5] is IGROV1 ovarian.
Test [6] has as its system LOX IMVI melanoma.
The subject of test [7] is M14 melanoma.
Test [8] has as its system MDA-MB-231 breast.
For test [9], the system named is MDA-N.
The test system of test [10] is NCI-H23 lung.
For test [11], the system named is OVCAR-3 ovarian.
Test [12] has as its system OVCAR-5 ovarian.
Test [13] relates to RPMI-8226 leukemia.
Test [14] has as its system RXF 393 renal.
The test system of test [15] is SF-268 CNS.
Test [16] concerns SN12C renal.
Test [17] has as its system SNB-75 CNS.
Test [18] concerns SR leukemia.
The subject of test [19] is T-47D breast.
Test [20] has as its system TK-10 renal.

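Step 1: Grow cells in 96-well plates. Step 2: Expose to compound for 48 hours at 5 concentrations. Step 3: Interpolate endpoints linearly; if unreached, use highest concentration. TGI is the concentration that stops growth completely.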

Consider `CCOP(=O)(OCC)/C(F)=C/c1ccc(F)cc1`, for which the TGI in test [1], in test [2], in test [3], in test [4], in [5] and in test [6] was greater than 100 µM in each case. The TGI in test [7], in test [8], in test [9], in test [10], in [11] and in [12] was greater than 100 µM throughout. The TGI in test [13], in [14], in test [15], in test [16], in test [17] and in [18] was greater than 100 µM each time. Also, the TGI in test [19] and in test [20] was greater than 100 µM throughout.
For the compound `CC(=O)OCC1OC(NC(=S)Nn2c(-c3ccccc3)nc3ccccc3c2=O)C(OC(C)=O)C(OC(C)=O)C1OC(C)=O` (stereo not given), the TGI in test [1], in test [2], in test [3], in [4], in test [5] and in [6] was greater than 100 µM each time. Moreover, the TGI in test [7], in [8], in [9], in test [10], in test [11] and in test [12] was greater than 100 µM each time. In addition, the TGI in test [13] is greater than 100 µM; in test [14], greater than 100 µM; in test [15] it was greater than 100 µM; in test [16] it was greater than 100 µM; in [17], greater than 100 µM; in test [18], 88.7 µM. This compound displayed a TGI in test [19] of 60.2 µM.
On to `COC(=O)[C@]1(CCC(C)=O)C(=O)C=CN([C@H](C)c2ccccc2)[C@@H]1Cc1ccc(OC)c(OCc2ccccc2)c1I`, for which the TGI in test [1] is 50.1 µM; in [2], 71.8 µM; in test [3] it was greater than 100 µM; in test [4], 31.8 µM; in [5] it was 29.1 µM; in test [6] it was 31 µM. Besides, the TGI came out at 28.2 µM in test [7]; 35.7 µM in test [8]; 41.3 µM in [9]; 49.6 µM in test [10]; 31 µM in test [11]; 63.8 µM in test [12]. In addition, the TGI in [13] is 51.7 µM; in [14] it was 23.6 µM; in [15] it was 38.7 µM; in test [16] it was 35 µM; in test [18], greater than 100 µM; in [19] it was 49.4 µM. The TGI in test [20] came to 56.8 µM.
Take `O=C(NNC(=O)c1cc2ccccc2[nH]1)c1cc2ccccc2[nH]1`: the TGI in test [1], in test [3], in test [4], in test [5], in [6] and in test [7] was greater than 100 µM throughout. Also, the TGI in test [8], in test [9], in [11], in test [12], in test [13] and in test [14] was greater than 100 µM in each case. Besides, the TGI in test [15], in test [16], in [17], in test [18], in test [19] and in test [20] was greater than 100 µM each time.
In the case of `CC(=O)OCC1OC(Sc2nc(-c3ccccc3)c(C#N)c(=O)n2C2OC(COC(C)=O)C(OC(C)=O)C(OC(C)=O)C2OC(C)=O)C(OC(C)=O)C(OC(C)=O)C1OC(C)=O` (stereo not given), the TGI in test [1], in [2], in test [4], in test [5], in test [6] and in [7] was greater than 100 µM each time. For the same compound, the TGI in test [8], in [9], in test [10], in test [11], in test [12] and in [13] was greater than 100 µM each time. The TGI in test [14], in test [15], in [16], in [17], in test [18] and in [19] was greater than 100 µM in each case. The same compound showed a TGI in test [20] greater than 100 µM.
In the case of `CCOC(=O)c1sc(N)nc1N1CCCC1`, the TGI in test [1], in test [2], in test [3], in [4], in [5] and in [6] was greater than 100 µM throughout. The TGI in test [7], in test [8], in [9], in test [10], in [11] and in [12] was greater than 100 µM in each case. Further, the TGI in test [13], in test [14], in [16], in [17], in [18] and in test [19] was greater than 100 µM in each case. In addition, the TGI in test [20] is greater than 100 µM.
Consider `C(#C[C@@]12CCC[C@@H]1NCO2)c1ccc2c(c1)OCO2`, for which the TGI in test [1], in test [2], in [3], in test [4], in test [5] and in test [6] was greater than 100 µM in each case. For the same compound, the TGI in [7] is 73.1 µM; in [8], greater than 100 µM; in [9], greater than 100 µM; in test [10], greater than 100 µM; in [11], greater than 100 µM; in test [12], greater than 100 µM. In addition, the TGI in [13], in test [14], in [15], in [17], in [18] and in test [19] was greater than 100 µM in each case. This compound had a TGI in [20] greater than 100 µM.
Turning to `CCc1c(N=[N+]=[N-])c2ccccc2oc1=O`, the TGI in [1], in test [2], in test [3], in test [4], in test [5] and in test [6] was greater than 100 µM each time. For the same compound, the TGI in test [7], in [8], in test [9], in test [10], in test [11] and in test [13] was greater than 100 µM each time. Moreover, the TGI in [14], in test [15], in [16], in test [17], in [18] and in [19] was greater than 100 µM throughout. In test [20], this compound returned a TGI greater than 100 µM.
With `C=C1C(=O)O[C@H]2[C@@H]3O[C@@](C)(CC/C=C(\C)CCC[C@@H]2C)[C@H](O)C[C@@H]13`, the TGI in test [1] was greater than 100 µM; in [2] it was 6.25 µM; in test [3], 81.5 µM; in test [4], 3.94 µM; in test [5] it was 35.6 µM; in test [6] it was 16.2 µM. Also, the TGI was 5.86 µM in test [7]; 21.6 µM in test [8]; 10.1 µM in test [9]; 2.96 µM in test [10]; 9.54 µM in test [11]; 31.2 µM in test [12]. The TGI in test [14] was 84.3 µM; in test [15], greater than 100 µM; in test [16], 8.15 µM; in test [17], 30.7 µM; in test [18], greater than 100 µM; in [19], 16.8 µM. This compound also registered a TGI in [20] of 17.4 µM.
For the compound `COc1ccc(CCN2C(=O)C(=O)C(C(=O)c3ccccc3)C2c2ccccc2)cc1OC` (stereo not given), the TGI in test [1], in test [2], in test [3], in test [4], in [5] and in test [6] was greater than 100 µM throughout. The TGI in test [7], in test [8], in test [9], in test [10], in [11] and in test [12] was greater than 100 µM throughout. The TGI in test [13], in [14], in test [15], in test [16], in [18] and in [19] was greater than 100 µM each time. The TGI in test [20] was greater than 100 µM.
In the case of `CCOc1cc(NC(C)=O)ccc1C(=O)NN1C(=O)/C(=C/c2ccc(Cl)cc2)N=C1c1ccccc1`, the TGI was 81.4 µM in test [1]; greater than 100 µM in test [2]; 93 µM in [3]; greater than 100 µM in test [4]; greater than 100 µM in test [5]; greater than 100 µM in [6]. The TGI in [7], in [8], in test [9], in test [10], in [11] and in test [12] was greater than 100 µM in each case. For the same compound, the TGI was greater than 100 µM in [13]; greater than 100 µM in test [14]; greater than 100 µM in test [16]; greater than 100 µM in [17]; greater than 100 µM in [18]; 77.1 µM in test [19]. The TGI in test [20] is greater than 100 µM.
In the case of `C[C@@H](NC(=O)Nc1cccc(C(=O)Nc2cc(C(C)(C)C)ccc2C(=O)O)n1)c1ccccc1`, the TGI is greater than 100 µM in test [1]; greater than 100 µM in test [2]; greater than 100 µM in test [4]; greater than 100 µM in [5]; 36.7 µM in test [6]; greater than 100 µM in [7]. For the same compound, the TGI in [8] was 50 µM; in [9], greater than 100 µM; in test [10], greater than 100 µM; in [11], 51.1 µM; in test [12] it was greater than 100 µM; in [13], greater than 100 µM. Also, the TGI is 38.5 µM in [14]; greater than 100 µM in test [15]; greater than 100 µM in test [16]; greater than 100 µM in test [17]; greater than 100 µM in test [18]; greater than 100 µM in [19].
Take `COC(=O)c1nc2n(n1)-c1ccccc1C(=O)N(Cc1ccccc1)C2`: the TGI in test [1], in test [2], in test [3], in [4], in test [5] and in [6] was greater than 100 µM throughout. Moreover, the TGI in test [7], in test [8], in test [9], in test [10], in [11] and in test [12] was greater than 100 µM each time. Further, the TGI in test [13], in test [14], in [15], in [16], in [18] and in [19] was greater than 100 µM in each case. The compound also had a TGI in test [20] greater than 100 µM.
As for `CCOC(=O)c1c2ccccc2n2c(=O)n(-c3ccccc3)nnc12`, the TGI in [1] was greater than 100 µM; in test [2], greater than 100 µM; in test [3] it was greater than 69.5 µM; in test [5], greater than 100 µM; in test [6], greater than 100 µM; in test [7] it was greater than 100 µM. Moreover, the TGI in test [8], in [9], in test [10], in test [11], in test [12] and in test [13] was greater than 100 µM throughout. Also, the TGI in [14] is greater than 100 µM; in test [15], greater than 100 µM; in [16] it was greater than 100 µM; in [17], 89.5 µM; in [18], greater than 25.1 µM; in test [19], 71.5 µM. This compound returned a TGI in [20] greater than 100 µM.
